Source: the supplement of paper PMC5908809

Experiments:
[1] = system: normal NK cells expanded with K562-aAPC; assay: percent inhibition of viability; higher = more inhibition; details: 72 h, IL-2 2.5 ng/mL
Method: (§1)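 Drug sensitivity and resistance testing on K562-aAPC-expanded normal NK cells: 5 concentrations (10-fold steps over a 10,000-fold range), 72 h at 37 °C, viability by CellTiter-Glo normalised to DMSO and benzethonium chloride controls; DSS from the fitted curve.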

[2] = system: DERL-7 (IL-2 2.5 ng/mL); assay: as above; details: 72 h
[3] = system: IMC-1 (IL-2 20 ng/mL); assay: as above; details: 72 h
[4] = system: KAI3 (IL-2 2.5 ng/mL); assay: as above; details: 72 h
[5] = system: KHYG-1 (IL-2 2.5 ng/mL); assay: as above; details: 72 h
[6] = system: NK-92 (IL-2 2.5 ng/mL); assay: as above; details: 72 h
[7] = system: NK-YS (IL-2 2.5 ng/mL); assay: as above; details: 72 h
[8] = system: NKL (IL-2 2.5 ng/mL); assay: as above; details: 72 h
[9] = system: SNK-6 (IL-2 2.5 ng/mL); assay: as above; details: 72 h
[10] = system: YT (IL-2 2.5 ng/mL); assay: as above; details: 72 h
[11] = system: normal primary NK cells, pool 1 (3 donors) (IL-2 2.5 ng/mL); assay: as above; details: 72 h
[12] = system: normal primary NK cells, pool 1 (3 donors), resting (IL-2 0 ng/mL); assay: as above; details: 72 h
[13] = system: normal primary NK cells, pool 2 (3 donors) (IL-2 2.5 ng/mL); assay: as above; details: 72 h
[14] = system: normal primary NK cells, pool 3 (3 donors) (IL-2 2.5 ng/mL); assay: as above; details: 72 h
[15] = system: normal NK cells expanded with K562-aAPC; assay: drug sensitivity score (DSS) (DSS units); higher = more sensitive; extreme values may be limits of the assay; details: 72 h; IL-2 2.5 ng/mL
Method: as §1

[16] = system: DERL-7 (IL-2 2.5 ng/mL); assay: as above; details: 72 h
[17] = system: IMC-1 (IL-2 20 ng/mL); assay: as above; details: 72 h
[18] = system: KAI3 (IL-2 2.5 ng/mL); assay: as above; details: 72 h
[19] = system: KHYG-1 (IL-2 2.5 ng/mL); assay: as above; details: 72 h
[20] = system: NK-92 (IL-2 2.5 ng/mL); assay: as above; details: 72 h
[21] = system: NK-YS (IL-2 2.5 ng/mL); assay: as above; details: 72 h
[22] = system: NKL (IL-2 2.5 ng/mL); assay: as above; details: 72 h
[23] = system: SNK-6 (IL-2 2.5 ng/mL); assay: as above; details: 72 h
[24] = system: YT (IL-2 2.5 ng/mL); assay: as above; details: 72 h
[25] = system: normal primary NK cells, pool 1 (3 donors) (IL-2 2.5 ng/mL); assay: as above; details: 72 h
[26] = system: normal primary NK cells, pool 1 (3 donors), resting (IL-2 0 ng/mL); assay: as above; details: 72 h
[27] = system: normal primary NK cells, pool 2 (3 donors) (IL-2 2.5 ng/mL); assay: as above; details: 72 h
[28] = system: normal primary NK cells, pool 3 (3 donors) (IL-2 2.5 ng/mL); assay: as above; details: 72 h

Oc1ncnc2[nH]ncc12 [Allopurinol] (max concentration tested 10000 nM)
percent inhibition of viability [%]
Details | 1 nM | 10 nM | 100 nM | 1000 nM | 10000 nM
[1] | -3.35 | -7.15 | -3.73 | 3.65 | 10.3
[2] | 2.01 | 4.75 | 3.34 | 1.14 | -11.8
[3] | 0.44 | 0.22 | 0.39 | 1.15 | 17.8
[4] | 17.2 | 10.9 | 9.45 | 11.5 | 25.8
[5] | -9.33 | -11.3 | -5.44 | -3.66 | 4.19
[6] | 6.41 | 11.2 | 3.55 | 20.5 | 30.9
[7] | 2.79 | -1.6 | -0.2 | 4.55 | 19.6
[8] | 1.32 | 3.75 | 2.9 | 25.9 | 26
[9] | 11.9 | -22.5 | -2.24 | -13.2 | 5.06
[10] | -7.85 | -8.54 | -5.69 | -2.75 | 18
[11] | -1.72 | 15.7 | 6.17 | 6.91 | 4.11
[12] | 22.9 | 25.1 | 18.7 | 23.7 | 20.5
[13] | 4.21 | 8.86 | 8.54 | 1.11 | 5.24
[14] | -2.7 | 8.19 | 6.53 | 0 | 8.15

Details | drug sensitivity score
[15] | 0.01
[16] | 0
[17] | 0.55
[18] | 0
[19] | 0
[20] | 3.57
[21] | 1.14
[22] | 4.59
[23] | 0
[24] | 0.33
[25] | 0
[26] | 0
[27] | 0
[28] | 0

CCn1cc(-c2ccnc3[nH]c(-c4cccc(CN(C)C)c4)cc23)c(-c2ccc(NC(=O)N(C)C)cc2)n1 (max concentration tested 1000 nM)
percent inhibition of viability [%]
Details | 0.1 nM | 1 nM | 10 nM | 100 nM | 1000 nM
[1] | -5.72 | -6.24 | -0.83 | 49.9 | 32
[2] | -1.42 | -13.7 | 13.4 | 68.1 | 56.9
[3] | -3.05 | 2.14 | 9.34 | 18.7 | 69
[4] | 0.71 | -0.96 | 15.3 | 16.4 | 34.5
[5] | -0.5 | 3.29 | 9.71 | 39.2 | 54
[6] | -10.8 | -15.2 | -2.48 | 28.9 | 35.5
[7] | -3.92 | -3.4 | 26.2 | 69.9 | 66.9
[8] | -15 | -6.31 | 2.14 | 11.6 | 43.2
[9] | 20.9 | 18.6 | 35 | 71.1 | 65.4
[10] | 2.03 | 4.54 | 11.2 | 19.1 | 39.5
[11] | 6.54 | -2.75 | 2.78 | -10.4 | -5.89
[12] | 10.8 | -0.01 | -0.34 | -11.5 | 8.25
[13] | -0.19 | 2.58 | 11.4 | 2.17 | 5.89
[14] | -9.36 | -0.39 | 7.48 | -0.31 | 7.08

Details | drug sensitivity score
[15] | 8.97
[16] | 14.7
[17] | 6.3
[18] | 4.01
[19] | 8.32
[20] | 5.05
[21] | 16.5
[22] | 3.99
[23] | 18.6
[24] | 4.47
[25] | 0
[26] | 0
[27] | 0
[28] | 0

O=C(/C=C/c1cccc(S(=O)(=O)Nc2ccccc2)c1)NO [Belinostat] (max concentration tested 10000 nM)
percent inhibition of viability [%]
Details | 1 nM | 10 nM | 100 nM | 1000 nM | 10000 nM
[1] | 0.58 | 6.04 | 16.8 | 99.6 | 101
[2] | -0.73 | 5.09 | 23.1 | 100 | 101
[3] | 2.36 | -0.13 | 20.2 | 99.6 | 101
[4] | 7.26 | 14.3 | 51.9 | 94.6 | 109
[5] | -0.75 | -0.46 | 35 | 108 | 110
[6] | 5.07 | 14.1 | 52.2 | 107 | 106
[7] | -1.97 | -1.76 | 21 | 97.5 | 109
[8] | 5.5 | 10.4 | 37.5 | 87.9 | 108
[9] | -0.17 | -5.01 | 28.3 | 97.2 | 101
[10] | 4.17 | 3.96 | 11.8 | 105 | 109
[11] | 3.19 | 9.82 | 43.7 | 96.4 | 98.7
[12] | -4.94 | 0.46 | 53.2 | 87.1 | 91.7
[13] | -8.09 | 0.56 | 31 | 93.9 | 95.6
[14] | -2.35 | -1.35 | 15.5 | 96.3 | 98.3

Details | drug sensitivity score
[15] | 20.8
[16] | 21.6
[17] | 21.2
[18] | 24.1
[19] | 22.9
[20] | 24.5
[21] | 20.9
[22] | 20.9
[23] | 21.7
[24] | 20.1
[25] | 22.5
[26] | 22.9
[27] | 21.2
[28] | 20.1
